Data on 1 compound can be found in US20180098969A1, “HODGKIN LYMPHOMA THERAPY” (Purdue Pharmaceutical Products L.P., priority 2016, published 2018).

For assay [1], the system named is Hodgkin lymphoma cell lines L1236-R100, L1236/DMSO and L1236. Kind of assay: Viable cell count and IC50, all three lines. In kind it is cell-based, human. The method, then:
(b) The bendamustine-resistant Hodgkin lymphoma cell line L1236-R100, non-resistant L1236 Hodgkin lymphoma cell line cultured in DMSO L1236/DMSO and L1236 was cultured in the presence of EDO-S101 dissolved in DMSO at concentrations of 0.78 μM, 1.56 μM, 3.12 μM, 6.25 μM and 12.5 μM. Control cells were cultured in the same final concentration of DMSO. The number of viable cells was assessed at 24, 48 and 72 hours through a Countess™ automated cell counter (Invitrogen), each experiment being repeated three times and the results given being the mean of the three results ±SD.

For a further assay, the system named is R100 cell line. Kind of assay: ATM/ATR transcripts. In kind it is cell-based, human. The conditions noted are these: EDO-S101 alone. The method, then:
(§1) 1.56 μM of EDO-S101 was administered to two Hodgkin lymphoma cell lines, the bendamustine naïve cell line L1236 and the bendamustine resistant cell line R100. In a second experiment, Brentuximab Vedotin was administered at a concentration of 3.12 μg/ml to the L1236 cell line and at a concentration of 0.39 μg/ml to the R100 cell line. Finally, in a third experiment EDO-S101 and Brentuximab Vedotin were administered in combination to each of the two cell lines at the same concentrations that they were administered in the monotherapy experiments.

Assay [2] deals with L428 cells. The assay is described as follows: Cytogenetic investigation of cells from xenografted mice. It is filed as in vivo, NSG mice. As to conditions: different doses including single 60 mg/kg. The method, then: Separated cells were cultured in the presence of RPMI 1640 supplemented with 10% Fetal Calf Serum (FCS) and antibiotics, colcemid (0.1 μg/ml) added 2 h before harvesting, and the slides with metaphase chromosomes prepared following the standard methanol/acetic acid (3/1, v/v) procedure.
Four new cell lines were generated after one month of in vitro culture following 24 hour of exposure to EDO-S101. Fluorescence in situ hybridysation (FISH) was performed using a combination of standard procedures from the recommended protocols for chromosomal analysis, following telomere and centromere staining, using peptide nucleic acid (PNA) probes in order to detect unstable chromosomal aberrations and to delimit the chromosome territory. M-FISH was performed using multi-FISH probes (Metasystems GmbH, Altlussheim, Germany), according to the manufacturer's recommendations on the same slide. Images of hybridized metaphases were captured using a charge coupled device camera (Zeiss, Thornwood, N.Y.) coupled to a Zeiss Axioplan microscope and processed using ISIS software (Metasystems).
The ocular tumour masses were harvested, as well as cells which infiltrated the liver. Five new cell lines were established from ocular tumours and the livers of both control mice (PBS or vehicle). […]

The test system of a further assay is L1236-R100. Kind of assay: Viable cell count and IC50, bendamustine-resistant line. It is filed as cell-based, human. How it is done:
(b) The bendamustine-resistant Hodgkin lymphoma cell line L1236-R100, non-resistant L1236 Hodgkin lymphoma cell line cultured in DMSO L1236/DMSO and L1236 […] Control cells were cultured in the same final concentration of DMSO. The number of viable cells was assessed at 24, 48 and 72 hours through a Countess™ automated cell counter (Invitrogen), each experiment being repeated three times and the results given being the mean of the three results ±SD.

For a further assay, the system named is L540 cell line. The assay is described as follows: Mitotic index and chromosomal aberrations. In kind it is cell-based, human. The method, then:
(§2) The mitotic index and chromosomal aberrations for each of the cell lines were evaluated after treatment with either 20 μmol or 10 μmol EDO-S101 in DMSO. Each cell line was cultured at 37° C. in the presence of RPMI 1640 supplemented with 10% FCS and antibiotics. Colcemid (0.1 ug/ml) was added 2 h before harvesting and slides with chromosomes in metaphase were prepared following the standard methanol/acetic acid (3/1, v/v) procedure. The slides were stored at −20° C. until use.
(§3) FISH was performed using a combination of standard procedures from the recommended protocols for chromosome analysis, following telomere and centromere staining, using PNA probes. In all, 100 metaphases were scored per in vitro dose exposure.
(§4) The mitotic index was determined by measurement of the sum of all cells in prophase, metaphase, anaphase and telophase divided by the total number of cells.

For assay [3], the system named is Hodgkin lymphoma cell lines. The assay is described as follows: Mitotic index and chromosomal aberrations. It is filed as cell-based, human. How it is done:
as §2, §3, §4

The next assay has as its system KMH2 cell line. The assay is described as follows: Mitotic index and chromosomal aberrations. In kind it is cell-based, human. How it is done:
as §2, §3, §4

For assay [4], the system named is Hodgkin lymphoma cell lines (KMH2, HDML2, L540, L1236 and L426). The assay is described as follows: IC50 comparison of bendamustine, vorinostat and EDO-S101. It is filed as cell-based, human. As to conditions: tumour cells of Hodgkin lymphoma. How it is done: (a) Five Hodgkin lymphoma cell lines (KMH2, HDML2, L540, L1236 and L426) were cultured separately in the presence of bendamustine, vorinostat and EDO-S101 dissolved in DMSO at 37° C. L1236-derived Hodgkin lymphoma cell lines were selected as they have an acquired stable resistance to bendamustine (R100) or an ability to display continuous growth upon extended exposure to sub-lethal concentrations of bendamustine (R25, R50 and R75). A detailed description of the L1236-R Hodgkin lymphoma cell lines is disclosed in De Filippi et al, ASH 2015, Abstract. # 2479. In these tests, the L1236-100R bendamustine resistant strain was used.

In assay [5] the test system is L428 cells. The assay is described as follows: Orbital tumour mass at injection site in xenografted mice. It is filed as in vivo, NSG mice. As to conditions: after injection. How it is done:
Two independent experiments were performed to investigate the dose-effect of EDO-S101 in NSG mice eight weeks after xenografting with L428 cells as in Example 8. The aim of the protocol shown in FIG. 8B was to evaluate the effect of sequential treatment with a moderate dose of 60 mg/kg given at an interval of three weeks.
Some mice developed an orbital tumour mass at the site of the injection. […] In one mouse only that was treated with two doses of 60 mg/kg of EDO-S101, a regression of the orbital tumour was initially observed followed by re-establishment of the orbital mass 3 weeks later. However, this was the only instance observed of re-establishment of the orbital mass after treatment with EDO-S101 at either concentration.

For the next assay, the system named is L1236 cell line. Kind of assay: Cell cycle checkpoint proteins and gene expression. In kind it is cell-based, human. As to conditions: EDO-S101 alone. The method, then: as §1

Consider `Cn1c(CCCCCCC(=O)NO)nc2cc(N(CCCl)CCCl)ccc21` [EDO-S101], for which, in assay [1], the “anti-proliferative activity compared with bendamustine” value is recorded as “approximately two orders of magnitude greater than for bendamustine”. In the assay with R100 cell line, the “effect on ATM/ATR unbalance” value was “upregulating ATR and downregulating ATM transcripts”. For the same compound, the “metaphases or cell lines from cells of treated mice” value in the assay with L428 cells [2] is given as “not possible to obtain either metaphases from direct culture or establish cell lines”. For the same compound, the “anti-proliferative activity compared with vorinostat” value with L1236-R100 is “greater than that of vorinostat”. Also, the viable cells entry with L1236-R100 (48 hours after treatment with 50 μM) was “no viable cells being observed”. Besides, the mitotic index result in the assay with L540 cell line and in the assay on KMH2 cell line was “very low mitotic index” each time. In addition, the metaphases observed result in [3] (10 μmol) is “only a few metaphases of poor quality”; in assay [3] (20 μmol, any cell line), “No metaphases were observed”. The “sensitivity in mitotic index assay” value in [3] (all cell lines, 24 h of treatment) is on record as “remarkably high sensitivity”. Further, the “chromosomal aberrations in metaphase” value in the assay with KMH2 cell line (telomere and centromere staining) is given as “numerous chromosomal aberrations”. For the same compound, in assay [4], the “IC50s compared with those of bendamustine” value is recorded as “about ten-fold lower”. In addition, the orbital tumour mass result in the assay with L428 cells [5] is “signification regression”. Also, the “effect on cell cycle checkpoint proteins” value in the assay on L1236 cell line is “activated cell cycle checkpoint proteins”.
